Our source for the IC50 values is patent US20250304587A1, “WEE1 INHIBITOR, PREPARATION THEREFOR AND USE THEREOF” (JIANGSU TASLY DIYI PHARMACEUTICAL CO., LTD., priority 2022, published 2025).

Structures are written as SMILES.

One assay relates to BxPC3 cells. The experiment in a line: Cell Titer-Glo anti-proliferation, BxPC3 cells. Format: cell-based, human. The following applies: 3 days, read-out: Anti-proliferative activity BxPC3 (IC50 class). As for the experimental part:
(§1) A. Evaluation of the Anti-Proliferative Effect of Compounds on BxPC3, HT-29 and OVCAR-3 Cells by the Cell Titer-Glo Method
(§2) Compound solutions of different concentration gradients were prepared. […] The cell growth group without compound was used as a positive control (maximum signal control) and the medium was used as a negative control (minimum signal control), while ensuring that the final level of DMSO in each reaction well was 0.2%. After removing the medium from the 384-well plate, 25 μl of the configured compound at different concentrations was transferred into the well plate and the compound and cells were incubated in the cell incubator at 37° C. with 5% CO2 for 3 days.
(§3) The 384-well plates were removed from the cell incubator and allowed to equilibrate for 1 h to room temperature. 25 μl of Cell Titer-Glo assay was added to each well, lysed on a shaker for 2 min and then read out (Luminescence) using a BMG PHERAStar after 10 min incubation. Calculate the inhibition rate from the luminescence signal.
(§4) to calculate the rate of inhibition of the cells by different concentrations of the compounds. The IC50 of the compound on cell activity inhibition was calculated by fitting a log(inhibitor) vs. response-Variable slope model to GraphPad Prism 6. The fitted equation was: Y=Bottom+(Top-Bottom)/(1+10^((Log IC50−X)*HillSlope)), where Y represents the rate of inhibition and X represents the concentration of the known compound after Log.
(Cellular ATP, detected with luciferase, serves as a proxy for viable cell number.)

For a further assay, the system named is HT-29 cells. The experiment in a line: Cell Titer-Glo anti-proliferation, HT-29 cells. The class given is cell-based, human. The note with it: 3 days, read-out: Anti-proliferative activity HT-29 (IC50 class). Here is the method:
as §1, §2, §3, §4

A further assay deals with OVCAR-3 cells. The experiment in a line: Cell Titer-Glo anti-proliferation, OVCAR-3 cells. The class given is cell-based. The following applies: 3 days, read-out: Anti-proliferative activity OVCAR-3 (IC50 class). As for the experimental part: as §1, §2, §3, §4

On to `C=CCn1c(=O)c2cnc(Nc3ccc(N4CC5CC(C4)N5C(C)C)cc3)nc2n1-c1ccc2c(n1)C(O)C1(CC2)CC1` (single isomer, unassigned) [Compound 39a], for which the IC50 with BxPC3 cells, with HT-29 cells and with OVCAR-3 cells was 0.1 to 1 µM each time.

On to `C=CCn1c(=O)c2cnc(Nc3ccc(N4CC5CN(C)CC5C4)cc3)nc2n1-c1ccc2c(n1)C(O)(C(F)(F)F)C1(CC2)CC1` (single isomer, unassigned) [Compound 58a], for which the IC50 in the assay with BxPC3 cells is 1 to 2 µM; with HT-29 cells it was 0.1 to 1 µM; in the assay on OVCAR-3 cells, 2 to 5 µM.

In the case of `C=CCn1c(=O)c2cnc(Nc3ccc(N4CCC5(CCN(C)CC5)CC4)cc3)nc2n1-c1ccc2c(n1)C(O)(CC)C1(CC1)C2` (racemic) [Compound 27], the IC50 with BxPC3 cells, with HT-29 cells and in the assay with OVCAR-3 cells was 0.1 to 1 µM in each case.

With `C=CCn1c(=O)c2cnc(Nc3ccc(N4C[C@@H]5C[C@H]4CN5C)cc3)nc2n1-c1ccc2c(n1)[C@@](C)(O)C1(CC2)CC1` (single isomer, unassigned) [Compound 45a], the results for the IC50 in the assay with BxPC3 cells, with HT-29 cells and in the assay on OVCAR-3 cells were 1 to 2 µM, 0.1 to 1 µM and 0.1 to 1 µM, respectively.

For `C=CCn1c(=O)c2cnc(Nc3ccc(N4CCC5(CCN(C)CC5)CC4)cc3)nc2n1-c1ccc2c(n1)C(O)(CC)C1(CC2)CC1` (stereo not drawn) [Compound 69b], the IC50 in the assay with BxPC3 cells, with HT-29 cells and in the assay on OVCAR-3 cells was 1 to 2 µM in each case.

Consider `C=CCn1c(=O)c2cnc(Nc3ccc(N4CCN(C)CC4)c(C)c3)nc2n1-c1ccc2c(n1)[C@](C)(O)C1(CC2)CC1` (single isomer, unassigned) [Compound 23b], for which the IC50 in the assay on BxPC3 cells, in the assay on HT-29 cells and in the assay on OVCAR-3 cells was 0.1 to 1 µM each time.

Turning to `C=CCn1c(=O)c2cnc(Nc3ccc(N4CC5CC(C4)N5C)c(C)c3)nc2n1-c1ccc2c(n1)C(O)C1(CC2)CC1` (stereo not drawn) [Compound 67], the IC50 with BxPC3 cells, in the assay with HT-29 cells and in the assay with OVCAR-3 cells was 1 to 2 µM each time.

Turning to `C=CCn1c(=O)c2cnc(Nc3ccc(N4CCC(N(C)C)CC4)cc3)nc2n1-c1ccc2c(n1)C(O)C1(CC2)CC1` (stereo not drawn) [Compound 66b], the half-inhibitory concentration (IC50) lay within 0.1 to 1 µM with BxPC3 cells, 0.1 to 1 µM in the assay on HT-29 cells and 1 to 2 µM in the assay on OVCAR-3 cells.

As to `C=CCn1c(=O)c2cnc(Nc3ccc(N4C[C@H]5CN(C)C[C@H]5C4)cc3)nc2n1-c1ccc2c(n1)[C@@](C)(O)C1(CC2)CC1` (single isomer, unassigned) [Compound 43b], the IC50 in the assay with BxPC3 cells, in the assay on HT-29 cells and in the assay on OVCAR-3 cells was 0.1 to 1 µM each time.

`C=CCn1c(=O)c2cnc(Nc3ccc(N4CCN(C)CC4)c(C)c3)nc2n1-c1ccc2c(n1)C(C)(O)C1(CC2)CC1` (racemic) [Compound 8]: the IC50 is 1 to 2 µM in the assay with BxPC3 cells, 0.1 to 1 µM with HT-29 cells and 1 to 2 µM in the assay on OVCAR-3 cells.

`C=CCn1c(=O)c2cnc(Nc3ccc(N4CCC(N5CCN(C)CC5)C(F)C4)cc3)nc2n1-c1ccc2c(n1)C(C)(O)C1(CC1)C2` (mixture of isomers) [Compound 14]: the IC50 fell in the range of 1 to 2 µM in the assay on BxPC3 cells, 0.1 to 1 µM with HT-29 cells and 0.1 to 1 µM in the assay with OVCAR-3 cells.

With `C=CCn1c(=O)c2cnc(Nc3ccc(N4CCC(N(C)C)CC4)c(C)c3)nc2n1-c1ccc2c(n1)[C@@](C)(O)C1(CC1)C2` (single isomer, unassigned) [Compound 42b], the IC50 with BxPC3 cells, in the assay with HT-29 cells and in the assay with OVCAR-3 cells was 0.1 to 1 µM in each case.

`C=CCn1c(=O)c2cnc(Nc3ccc(N4CCN(C)CC4)cc3)nc2n1-c1ccc2c(n1)C(C)(O)C1(CC1)C2` (single isomer, unassigned) [Compound 3a]: the IC50 in the assay with BxPC3 cells, in the assay on HT-29 cells and with OVCAR-3 cells was 1 to 2 µM in each case.

Consider `C=CCn1c(=O)c2cnc(Nc3ccc(N4CCC(N(C)C)CC4)c(C)c3)nc2n1-c1ccc2c(n1)[C@@H](O)C1(CC2)CC1` (single isomer, unassigned) [Compound 48a], for which the IC50 with BxPC3 cells, in the assay with HT-29 cells and in the assay on OVCAR-3 cells was 0.1 to 1 µM in each case.

Turning to `C=CCn1c(=O)c2cnc(Nc3ccc(N4CCC(N(C)C)[C@@H](F)C4)cc3)nc2n1-c1ccc2c(n1)[C@@](C)(O)C1(CC1)C2` (single isomer, unassigned) [Compound 20b], the IC50 in the assay on BxPC3 cells, with HT-29 cells and in the assay with OVCAR-3 cells was 1 to 2 µM in each case.

As for `C=CCn1c(=O)c2cnc(Nc3ccc(N4CCN(C)CC4)c(F)c3)nc2n1-c1ccc2c(n1)C(O)(CC)C1(CC1)C2` (stereo not drawn) [Compound 33], the figures for the IC50 in the assay with BxPC3 cells, in the assay on HT-29 cells and in the assay on OVCAR-3 cells were 2 to 5 µM, 1 to 2 µM and 2 to 5 µM, respectively.

On to `C=CCn1c(=O)c2cnc(Nc3ccc4c(c3)CN(C)CC4(C)C)nc2n1-c1ccc2c(n1)C(C)(O)C1(CC1)C2` (racemic) [Compound 9], for which the 50% inhibitory concentration (IC50) with BxPC3 cells is more than 10 µM; with HT-29 cells, 1 to 2 µM; with OVCAR-3 cells, 0.1 to 1 µM.

Take `C=CCn1c(=O)c2cnc(Nc3ccc(N4CC5CC(C4)N5C)cc3)nc2n1-c1ccc2c(n1)[C@H](O)C1(CC2)CC1` (single isomer, unassigned) [Compound 34b]: the values for the IC50 with BxPC3 cells, with HT-29 cells and in the assay on OVCAR-3 cells were 0.1 to 1 µM, 0.1 to 1 µM and 1 to 2 µM, respectively.

As to `C=CCn1c(=O)c2cnc(Nc3ccc(N4CC5CC(C4)N5C)cc3)nc2n1-c1ccc2c(n1)C(C)(O)C1(CC1)C2` (stereo not drawn) [Compound 13], the IC50 in the assay with BxPC3 cells, in the assay on HT-29 cells and in the assay on OVCAR-3 cells was 0.1 to 1 µM throughout.

With `C=CCn1c(=O)c2cnc(Nc3ccc(N4CCN(C)CC4)cc3)nc2n1-c1ccc2c(n1)[C@](O)(C(F)(F)F)C1(CC2)CC1` (single isomer, unassigned) [Compound 53a], the IC50 with BxPC3 cells lay within 2 to 5 µM; in the assay on HT-29 cells, 1 to 2 µM; in the assay on OVCAR-3 cells, 2 to 5 µM.

`C=CCn1c(=O)c2cnc(Nc3ccc(N4CCN(C)C(C)C4)cc3)nc2n1-c1ccc2c(n1)C(O)C1(CC2)CC1` (stereo not drawn) [Compound 68b]: the IC50 in the assay with BxPC3 cells, with HT-29 cells and with OVCAR-3 cells was 0.1 to 1 µM each time.

As to `C=CCn1c(=O)c2cnc(Nc3ccc(N4CCC(N(C)C)CC4)cc3)nc2n1-c1ccc2c(n1)C(O)(C(F)(F)F)C1(CC2)CC1` (stereo not drawn) [Compound 54b], the IC50 with BxPC3 cells, in the assay on HT-29 cells and in the assay with OVCAR-3 cells was 0.1 to 1 µM each time.

With `C=CCn1c(=O)c2cnc(Nc3ccc(N4CC5CC(C4)N5C(C)=O)cc3)nc2n1-c1ccc2c(n1)[C@](C)(O)C1(CC2)CC1` (single isomer, unassigned) [Compound 50b], the IC50 in the assay with BxPC3 cells, with HT-29 cells and in the assay on OVCAR-3 cells was 0.1 to 1 µM in each case.

Regarding `C=CCn1c(=O)c2cnc(Nc3ccc(N4C[C@H]5CN(C)C[C@H]5C4)cc3)nc2n1-c1ccc2c(n1)[C@H](O)C1(CC2)CC1` (single isomer, unassigned) [Compound 63b], the IC50 is 1 to 2 µM in the assay on BxPC3 cells, 0.1 to 1 µM in the assay with HT-29 cells and 1 to 2 µM with OVCAR-3 cells.

On to `C=CCn1c(=O)c2cnc(Nc3ccc(N4CCC(N(C)C)CC4)cc3)nc2n1-c1ccc2c(n1)[C@](O)(C(F)(F)F)C1(CC2)CC1` (single isomer, unassigned) [Compound 54a], for which the IC50 in the assay on BxPC3 cells was 2 to 5 µM; in the assay on HT-29 cells, 1 to 2 µM; with OVCAR-3 cells, 2 to 5 µM.

For the molecule `C=CCn1c(=O)c2cnc(Nc3ccc(N4CC5CC(C4)N5C(C)=O)cc3)nc2n1-c1ccc2c(n1)[C@@](C)(O)C1(CC2)CC1` (single isomer, unassigned) [Compound 50a], the IC50 in the assay on BxPC3 cells, with HT-29 cells and in the assay with OVCAR-3 cells was 0.1 to 1 µM each time.

With `C=CCn1c(=O)c2cnc(Nc3ccc(N4CCOCC4)cc3)nc2n1-c1ccc2c(n1)C(O)(CC)C1(CC1)C2` (racemic) [Compound 24], the IC50 in the assay on BxPC3 cells, in the assay on HT-29 cells and in the assay with OVCAR-3 cells was 1 to 2 µM throughout.

Take `C=CCn1c(=O)c2cnc(Nc3ccc(N4CC5CC(C4)N5C)cc3)nc2n1-c1ccc2c(n1)[C@](C)(O)C1(CC2)CC1` [Compound 7b]: the IC50 in the assay on BxPC3 cells, with HT-29 cells and in the assay with OVCAR-3 cells was 0.1 to 1 µM each time.

Turning to `C=CCn1c(=O)c2cnc(Nc3ccc(N4CC5CC(C4)N5C4CCC4)cc3)nc2n1-c1ccc2c(n1)C(O)(CC)C1(CC1)C2` (single isomer, unassigned) [Compound 22a], the IC50 lay in the range of 1 to 2 µM with BxPC3 cells, 0.1 to 1 µM with HT-29 cells and 0.1 to 1 µM in the assay with OVCAR-3 cells.

As for `C=CCn1c(=O)c2cnc(Nc3ccc(N4CCC(N(C)C)CC4)c(C)c3)nc2n1-c1ccc2c(n1)C(O)C1(CC2)CC1` (single isomer, unassigned) [Compound 41a], the half-inhibitory concentration (IC50) was 1 to 2 µM in the assay on BxPC3 cells, 0.1 to 1 µM in the assay with HT-29 cells and 0.1 to 1 µM in the assay with OVCAR-3 cells.

With `C=CCn1c(=O)c2cnc(Nc3ccc(N4CCN(C)CC4)cc3)nc2n1-c1ccc2c(c1)C(O)(CC)C1(CC1)C2` (racemic) [Compound 29], the IC50 in the assay on BxPC3 cells lay within 2 to 5 µM; in the assay with HT-29 cells, 1 to 2 µM; in the assay with OVCAR-3 cells, 0.1 to 1 µM.

Take `C=CCn1c(=O)c2cnc(Nc3ccc(N4CC5CC(C4)N5C(C)C)cc3)nc2n1-c1ccc2c(n1)C(O)(CC)C1(CC2)CC1` (single isomer, unassigned) [Compound 36a]: the IC50 with BxPC3 cells, with HT-29 cells and with OVCAR-3 cells was 0.1 to 1 µM in each case.

One may read the IC50 as the concentration needed to halve the response being measured.
